Converted amounts (≈) assume the structure as drawn. One block for each compound: values may come before it.
Columns and labels:
Assay in all cases: Antimicrobial assay (MIC, microtiter broth dilution)
Assay type in all cases: cell-based
E. coli = settings: for MIC E. coli 25922: strain 25922 (Tables II-V)
Protocol: (§1) The procedure for the antimicrobial assay is based upon the guidelines of the National Committee for Clinical Laboratory Standards, Document M7-T2, Volume 8, No. 8, 1988.
(§2) 1-5×10^5 CFUs/ml of either S. aureus ATCC 25923, E. coli ATCC 25922, P. aeruginosa ATCC 27853, or C. albicans were added to the wells in full strength Mueller Hinton broth (BBL 11443) from a mid-log culture. The inoculum is standardized spectrophotometrically at 600 nm and is verified by colony counts. The plates are incubated for 16-20 hours at 37° C., and the minimal inhibitory concentrations (MIC) for the compounds are determined. Minimal inhibitory concentration is defined as the lowest concentration of amino acid or peptide which produces a clear well in the microtiter plate.

P. aeruginosa = settings: for MIC P. aeruginosa 27853: strain 27853 (Tables II-V); for MIC P aeruginosa: Table I, P. aeruginosa ATCC 27853
Protocol: as §1, §2

S. aureus = settings: for MIC S. aureus 29213: strain 29213 (Tables II-V); for MIC S. aureus: Table I, S. aureus ATCC 25923
Protocol: as §1, §2

C. albicans = settings: for MIC C. albicans 14053: strain 14053; for MIC C. albicans: Table I
Protocol: as §1, §2

E. floccosum = settings: strain 52062
T. mentagrophytes = settings: strain 18748
M. canis = settings: strain 11621
T. rubrum = settings: strain 36262
C. parapsilosis = settings: for MIC C. parapsilosis 10232: strain 10232; for MIC C. parapsilosis 22109: strain 22109
E. faecium = settings: strain 26143
P. mirabilis = system: P. mirabilis
S. marcescens = system: S. marcescens
C. tropicalis = settings: for MIC C. tropicalis 13803: strain 13803; for MIC C. tropicalis 28707: strain 28707
P. gingivalis = system: P. gingivalis
C. kefyr = settings: strain 28838
E. faecalis = system: E. faecalis
L. fermentum = settings: strain 23271
C. difficile = settings: for MIC C. difficile P324: strain P324
B. fragilis = settings: strain 25285

MIC E. coli 25922 (E. coli): 16 µg/mL (≈ 30.1 µM)
MIC P. aeruginosa 27853 (P. aeruginosa): 256 µg/mL (≈ 482 µM)
MIC S. aureus 29213 (S. aureus): 4 µg/mL (≈ 7.54 µM)
MIC C. albicans 14053 (C. albicans): 32 µg/mL (≈ 60.3 µM)
MIC E. floccosum 52062 (E. floccosum): 16 µg/mL (≈ 30.1 µM)
MIC T. mentagrophytes 18748 (T. mentagrophytes): 4 µg/mL (≈ 7.54 µM)
MIC M. canis 11621 (M. canis): 32 µg/mL (≈ 60.3 µM)
MIC T. rubrum 36262 (T. rubrum): 16 µg/mL (≈ 30.1 µM)
SMILES: NC(Cc1ccc(F)cc1)C(=O)NCCCCCCCCCCCCNC(=O)C(N)Cc1ccc(F)cc1 (centres unmarked) [Compound 19]

MIC E. coli (E. coli; Table I, E. coli ATCC 25922): 128 µg/mL (≈ 210 µM)
MIC E. coli 25922 (E. coli): 64,256 μg/ml
MIC P aeruginosa (P. aeruginosa): 128 µg/mL (≈ 210 µM)
MIC P. aeruginosa 27853 (P. aeruginosa): 128 µg/mL (≈ 210 µM)
MIC S. aureus (S. aureus): 2 µg/mL (≈ 3.27 µM)
MIC S. aureus 29213 (S. aureus): 2,4 μg/ml
MIC C. albicans (C. albicans): > 256 µg/mL
MIC C. albicans 14053 (C. albicans): 128,256 μg/ml
MIC L. fermentum 23271 (L. fermentum): 4,8 μg/ml
MIC C. difficile P324 (C. difficile): 4 µg/mL (≈ 6.55 µM)
MIC C. difficile TTU614 (C. difficile; strain TTU614): 32 µg/mL (≈ 52.4 µM)
MIC B. fragilis 25285 (B. fragilis): 256 µg/mL (≈ 419 µM)
SMILES: N=C(N)NC(Cc1ccc(O)cc1)C(=O)NCCCCCCCCCCCCNC(=O)C(Cc1ccc(O)cc1)NC(=N)N (stereo not drawn) [Compound 4, 1,12-[bis-N-α-amidino-tyrosyl)diaminododecane]

MIC E. coli (E. coli; Table I, E. coli ATCC 25922): 32 µg/mL (≈ 112 µM)
MIC E. coli 25922 (E. coli): 32 µg/mL (≈ 112 µM)
MIC P aeruginosa (P. aeruginosa): 128 µg/mL (≈ 450 µM)
MIC P. aeruginosa 27853 (P. aeruginosa): 128 µg/mL (≈ 450 µM)
MIC S. aureus (S. aureus): 8 µg/mL (≈ 28.1 µM)
MIC S. aureus 29213 (S. aureus): 8 µg/mL (≈ 28.1 µM)
MIC C. albicans (C. albicans): 32 µg/mL (≈ 112 µM)
MIC C. albicans 14053 (C. albicans): 4,32 μg/ml
MIC C. parapsilosis 10232 (C. parapsilosis): 0.5 µg/mL (≈ 1.76 µM)
MIC C. parapsilosis 22109 (C. parapsilosis): 4 µg/mL (≈ 14.1 µM)
MIC C. tropicalis 13803 (C. tropicalis): 0.5 µg/mL (≈ 1.76 µM)
MIC C. tropicalis 28707 (C. tropicalis): ≤ 0.25 µg/mL
MIC C. kefyr 28838 (C. kefyr): 4 µg/mL (≈ 14.1 µM)
SMILES: N=C(N)NCCCCCCCCCCCCNC(=N)N [Compound 36, 1,12 [bisguanyl]diaminododecane]

The remaining lines, values behind:

SMILES: NC(N)=NC(Cc1ccccc1)C(=O)NCCCCCCCCCCCCNC(=O)C(Cc1ccccc1)N=C(N)N (stereo not drawn) [Compound 3, 1,12-[bis-N-α-amidino-phenylalanyl]diaminododecane]
MIC E. coli (E. coli; Table I, E. coli ATCC 25922): 4 µg/mL (≈ 6.91 µM)
MIC E. coli 25922 (E. coli): 4 µg/mL (≈ 6.91 µM)
MIC P aeruginosa (P. aeruginosa): 8 µg/mL (≈ 13.8 µM)
MIC P. aeruginosa 27853 (P. aeruginosa): 4,32 μg/ml
MIC S. aureus (S. aureus): 1 µg/mL (≈ 1.73 µM)
MIC S. aureus 29213 (S. aureus): 1 µg/mL (≈ 1.73 µM)
MIC C. albicans (C. albicans): 4 µg/mL (≈ 6.91 µM)
MIC C. albicans 14053 (C. albicans): 4 µg/mL (≈ 6.91 µM)
MIC E. floccosum 52062 (E. floccosum): 16 µg/mL (≈ 27.6 µM)
MIC C. parapsilosis 10232 (C. parapsilosis): 2 µg/mL (≈ 3.46 µM)
MIC C. parapsilosis 22109 (C. parapsilosis): 2 µg/mL (≈ 3.46 µM)
MIC E. faecium 26143 (E. faecium): 2 µg/mL (≈ 3.46 µM)
MIC T. mentagrophytes 18748 (T. mentagrophytes): 16 µg/mL (≈ 27.6 µM)
MIC M. canis 11621 (M. canis): 32 µg/mL (≈ 55.3 µM)
MIC P. mirabilis 23147 (P. mirabilis; strain 23147): > 256 µg/mL
MIC P. mirabilis 24231 (P. mirabilis; strain 24231): > 256 µg/mL
MIC S. marcescens 18963 (S. marcescens; strain 18963): 64 µg/mL (≈ 111 µM)
MIC S. marcescens 23420 (S. marcescens; strain 23420): > 256 µg/mL
MIC C. tropicalis 13803 (C. tropicalis): 2 µg/mL (≈ 3.46 µM)
MIC C. tropicalis 28707 (C. tropicalis): 0.5 µg/mL (≈ 0.864 µM)
MIC P. gingivalis 9-14K-1 (P. gingivalis; strain 9-14K-1): 4 µg/mL (≈ 6.91 µM)
MIC P. gingivalis 381 (P. gingivalis; strain 381): 4 µg/mL (≈ 6.91 µM)
MIC P. gingivalis A7A1-28 (P. gingivalis; strain A7A1-28): 4 µg/mL (≈ 6.91 µM)
MIC P. gingivalis FAY-19M-1 (P. gingivalis; strain FAY-19M-1): 4 µg/mL (≈ 6.91 µM)
MIC P. gingivalis W50 (P. gingivalis; strain W50): 4 µg/mL (≈ 6.91 µM)
MIC C. kefyr 28838 (C. kefyr): 2 µg/mL (≈ 3.46 µM)
MIC E. faecalis 19052 (E. faecalis; strain 19052): 1,2 μg/ml
MIC E. faecalis 19290 (E. faecalis; strain 19290): 1,2 μg/ml
MIC E. faecalis 23296 (E. faecalis; strain 23296): 1,2 μg/ml
MIC E. faecalis 29212 (E. faecalis; strain 29212): 1,2 μg/ml
MIC T. rubrum 36262 (T. rubrum): 16 µg/mL (≈ 27.6 µM)

SMILES: NC(N)=NC(Cc1ccccc1)C(=O)NCCCCCCCNC(=O)C(Cc1ccccc1)N=C(N)N (stereo not drawn) [Compound 6, 1,7-[bis-N-α-amidino-phenylalanyl]diaminoheptane]
MIC E. coli (E. coli; Table I, E. coli ATCC 25922): > 256 µg/mL
MIC E. coli 25922 (E. coli): > 256 µg/mL
MIC P aeruginosa (P. aeruginosa): > 256 µg/mL
MIC P. aeruginosa 27853 (P. aeruginosa): > 256 µg/mL
MIC S. aureus (S. aureus): 64 µg/mL (≈ 126 µM)
MIC S. aureus 29213 (S. aureus): 64,128 μg/ml
MIC C. albicans (C. albicans): 256 µg/mL (≈ 503 µM)
MIC C. albicans 14053 (C. albicans): 256 µg/mL (≈ 503 µM)
MIC L. fermentum 23271 (L. fermentum): 64 µg/mL (≈ 126 µM)
MIC C. difficile P324 (C. difficile): 128 µg/mL (≈ 252 µM)
MIC B. fragilis 25285 (B. fragilis): 256 µg/mL (≈ 503 µM)

SMILES: CCCCCCCCN(CCCCCCCC)C(=O)C(Cc1ccccc1)N=C(N)N (stereo not drawn) [Compound 32, N-α-amidino-phenylalanyl dioctylamide]
MIC E. coli (E. coli; Table I, E. coli ATCC 25922): 8 µg/mL (≈ 18.6 µM)
MIC P aeruginosa (P. aeruginosa): 128 µg/mL (≈ 297 µM)
MIC S. aureus (S. aureus): 1,2 μg/ml
MIC C. albicans (C. albicans): 2 µg/mL (≈ 4.64 µM)

SMILES: CCCCCCCCN(CCCCCCCC)C(=O)C(CC1CCCCC1)NC(=N)N (stereo not drawn) [Compound 74, N^α -Amidino-Cha-dioctylamide]
MIC E. coli (E. coli; Table VI): > 256 µg/mL
MIC Psuedo (P. aeruginosa; Table VI): > 256 µg/mL
MIC Staph (S. aureus; Table VI): 2 µg/mL (≈ 4.58 µM)
MIC Candida (C. albicans; Table VI): 2 µg/mL (≈ 4.58 µM)
